Data as given in PubChem BioAssay AID256 (DTP/NCI, 2004).
Where “and” joins values, the source holds several entries; their conditions need not be identical. Equal values may be shown once. Toxic doses and inconclusive results are not listed.

Test system: CD2F1 mice, L1210 leukemia ip, survival T/C
Experiment: NCI In Vivo Anticancer Drug Screen. Data for tumor model L1210 Leukemia (intraperitoneal) in CD2F1 (CDF1) mice
Conditions: higher = longer survival
In short: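 In this screen, transplantable tumors were grown in mice given either the compound or its vehicle. Results were expressed as the treated measurement relative to the control measurement.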

Structure (SMILES): Cc1cc(NCCCCCCNc2cc(C)nc3ccc(N)cc23)c2cc(N)ccc2n1
- T/C (endpoint: mean survival time, dose: 6.25 mg/kg/injection, schedule: Q01DX009 (ip), vehicle: water): 122 % of control
- T/C (endpoint: mean survival time, dose: 6.4 mg/kg/injection, schedule: Q08HX009 (ip), vehicle: water): 121 % of control
- T/C (endpoint: mean survival time, dose: 7.2 mg/kg/injection, schedule: Q01DX009 (ip), vehicle: saline with Tween-80): 115 % of control
- T/C (endpoint: mean survival time, dose: 7.4 mg/kg/injection, schedule: Q01DX009 (ip), vehicle: saline with Tween-80): 120 % of control
- T/C (endpoint: mean survival time, dose: 7.6 mg/kg/injection, schedule: Q08HX006 (iv), vehicle: saline with Tween-80): 101 % of control
- T/C (endpoint: mean survival time, dose: 7.6 mg/kg/injection, schedule: Q08HX009 (iv), vehicle: saline with Tween-80): 89 % of control
- T/C (endpoint: mean survival time, dose: 8.2 mg/kg/injection, schedule: Q01DX009 (sc), vehicle: saline with Tween-80): 98 % of control
- T/C (endpoint: mean survival time, dose: 9.0 mg/kg/injection, schedule: Q01DX009 (ip), vehicle: saline): 121 % of control
- T/C (endpoint: mean survival time, dose: 9.4 mg/kg/injection, schedule: Q01DX009 (ip), vehicle: water): 118 % of control
- T/C (endpoint: mean survival time, dose: 10.9 mg/kg/injection, schedule: Q01DX009 (sc), vehicle: saline with Tween-80): 98 % of control
- T/C (endpoint: mean survival time, dose: 12.8 mg/kg/injection, schedule: Q01DX009 (ip), vehicle: saline with Tween-80): 115 % of control
- T/C (endpoint: mean survival time, dose: 14.5 mg/kg/injection, schedule: Q01DX009 (ip), vehicle: saline with Tween-80): 156 % of control
- T/C (endpoint: mean survival time, dose: 15.3 mg/kg/injection, schedule: Q08HX009 (iv), vehicle: saline with Tween-80): 89 % of control
- T/C (endpoint: mean survival time, dose: 19.0 mg/kg/injection, schedule: Q01DX009 (sc), vehicle: water): 113 % of control
- T/C (endpoint: mean survival time, dose: 19.4 mg/kg/injection, schedule: Q01DX005 (iv), vehicle: saline with Tween-80): 118 % of control and 119 % of control
- T/C (endpoint: mean survival time, dose: 19.4 mg/kg/injection, schedule: Q01DX009 (ip), vehicle: saline with Tween-80): 165 % of control
- T/C (endpoint: mean survival time, dose: 19.4 mg/kg/injection, schedule: Q01DX009 (sc), vehicle: saline with Tween-80): 115 % of control
- T/C (endpoint: mean survival time, dose: 19.6 mg/kg/injection, schedule: Q08HX009 (ip), vehicle: saline with Tween-80): 151 % of control
- T/C (endpoint: mean survival time, dose: 22.7 mg/kg/injection, schedule: Q01DX009 (ip), vehicle: saline with Tween-80): 118 % of control
- T/C (endpoint: mean survival time, dose: 25.0 mg/kg/injection, schedule: Q01DX009 (ip), vehicle: water): 109 % of control
- T/C (endpoint: mean survival time, dose: 25.3 mg/kg/injection, schedule: Q01DX009 (ip), vehicle: water): 160 % of control
- T/C (endpoint: mean survival time, dose: 25.3 mg/kg/injection, schedule: Q01DX009 (sc), vehicle: water): 115 % of control
- T/C (endpoint: mean survival time, dose: 25.8 mg/kg/injection, schedule: Q01DX005 (iv), vehicle: saline with Tween-80): 117 % of control and 120 % of control
- T/C (endpoint: mean survival time, dose: 25.8 mg/kg/injection, schedule: Q01DX009 (ip), vehicle: saline with Tween-80): 166 % of control
- T/C (endpoint: mean survival time, dose: 25.8 mg/kg/injection, schedule: Q01DX009 (sc), vehicle: saline with Tween-80): 123 % of control
- T/C (endpoint: mean survival time, dose: 29.4 mg/kg/injection, schedule: Q01DX009 (ip), vehicle: saline with Tween-80): 171 % of control
- T/C (endpoint: mean survival time, dose: 30.6 mg/kg/injection, schedule: Q08HX009 (iv), vehicle: saline with Tween-80): 95 % of control
- T/C (endpoint: mean survival time, dose: 33.8 mg/kg/injection, schedule: Q01DX009 (sc), vehicle: water): 124 % of control
- T/C (endpoint: mean survival time, dose: 34.4 mg/kg/injection, schedule: Q01DX005 (iv), vehicle: saline with Tween-80): 116 % of control and 123 % of control
- T/C (endpoint: mean survival time, dose: 34.4 mg/kg/injection, schedule: Q01DX009 (ip), vehicle: saline with Tween-80): 167 % of control
- T/C (endpoint: mean survival time, dose: 34.4 mg/kg/injection, schedule: Q01DX009 (sc), vehicle: saline with Tween-80): 124 % of control
- T/C (endpoint: mean survival time, dose: 39.2 mg/kg/injection, schedule: Q08HX009 (ip), vehicle: saline with Tween-80): 165 % of control
- T/C (endpoint: mean survival time, dose: 40.4 mg/kg/injection, schedule: Q01DX009 (ip), vehicle: saline with Tween-80): 123 % of control
- T/C (endpoint: mean survival time, dose: 45.9 mg/kg/injection, schedule: Q01DX009 (ip), vehicle: saline with Tween-80): 171 % of control
- T/C (endpoint: mean survival time, dose: 58.8 mg/kg/injection, schedule: Q01DX009 (ip), vehicle: saline with Tween-80): 185 % of control
- T/C (endpoint: mean survival time, dose: 71.8 mg/kg/injection, schedule: Q01DX009 (ip), vehicle: saline with Tween-80): 157 % of control
- T/C (endpoint: mean survival time, dose: 78.4 mg/kg/injection, schedule: Q08HX009 (ip), vehicle: saline with Tween-80): 180 % of control
- T/C (endpoint: mean survival time, dose: 117.6 mg/kg/injection, schedule: Q01DX009 (ip), vehicle: saline with Tween-80): 98 % of control
- T/C (endpoint: mean survival time, dose: 127.8 mg/kg/injection, schedule: Q01DX009 (ip), vehicle: saline with Tween-80): 151 % of control
- T/C (endpoint: mean survival time, dose: 150.0 mg/kg/injection, schedule: Q01DX009 (ip), vehicle: saline with Tween-80): 168 % of control and 174 % of control
- T/C (endpoint: mean survival time, dose: 300.0 mg/kg/injection, schedule: Q01DX009 (ip), vehicle: saline with Tween-80): 120 % of control
- T/C (endpoint: median survival time, dose: 0.78 mg/kg/injection, schedule: Q01DX009 (ip), vehicle: water): 98 % of control
- T/C (endpoint: median survival time, dose: 1.56 mg/kg/injection, schedule: Q01DX009 (ip), vehicle: water): 93 % of control
- T/C (endpoint: median survival time, dose: 3.12 mg/kg/injection, schedule: Q01DX009 (ip), vehicle: water): 98 % of control
- T/C (endpoint: median survival time, dose: 6.25 mg/kg/injection, schedule: Q01DX009 (ip), vehicle: water): 109 % of control
- T/C (endpoint: median survival time, dose: 12.5 mg/kg/injection, schedule: Q01DX009 (ip), vehicle: water): 117 % of control
